In patent US8889874B2, “Imidazolone-chalcone derivatives as potential anticancer agent and process for the preparation thereof” (Council of Scientific and Industrial Research, priority 2010, dated 2014):
Like-named read-outs stand apart in the source and are kept apart here.

Tests used:
Assay type in all cases: cell-based, human
A498 (renal) = assay: NCI anticancer screen, SRB assay, 48 h; settings: Homo sapiens
Outline: (§1)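 Compounds were tested across fifty three human cancer cell lines from nine tumour types. Each line got a dose-response curve of at least five concentrations at 10-fold dilutions, with continuous drug exposure and sulforhodamine B protein staining to estimate viability or growth.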

HCC-2998 (colon) = assay: NCI anticancer screen, SRB assay, 48 h; settings: Homo sapiens
Outline: as §1

HCT-116 (colon) = assay: NCI anticancer screen, SRB assay, 48 h; settings: Homo sapiens
Outline: as §1

HCT-15 (colon) = assay: NCI anticancer screen, SRB assay, 48 h; settings: Homo sapiens
Outline: as §1

[1] = tested on: HOP-62 (non-small cell lung); assay: NCI anticancer screen, SRB assay, 48 h; settings: Homo sapiens
Outline: as §1

[2] = tested on: HOP-92 (non-small cell lung); assay: NCI anticancer screen, SRB assay, 48 h; settings: Homo sapiens
Outline: as §1

HS 578T (breast) = assay: NCI anticancer screen, SRB assay, 48 h; settings: Homo sapiens
Outline: as §1

[3] = tested on: K-562 (leukemia cell line); assay: NCI anticancer screen, SRB assay, 48 h; settings: Homo sapiens
Outline: as §1

MDA-MB-231/ATCC (breast) = assay: NCI anticancer screen, SRB assay, 48 h; settings: Homo sapiens
Outline: as §1

MDA-MB-435 (melanoma) = assay: NCI anticancer screen, SRB assay, 48 h; settings: Homo sapiens
Outline: as §1

[4] = tested on: NCI-H23 (non-small cell lung); assay: NCI anticancer screen, SRB assay, 48 h; settings: Homo sapiens
Outline: as §1

[5] = tested on: NCI-H460 (non-small cell lung); assay: NCI anticancer screen, SRB assay, 48 h; settings: Homo sapiens
Outline: as §1

OVCAR-4 (ovarian) = assay: NCI anticancer screen, SRB assay, 48 h; settings: Homo sapiens
Outline: as §1

SK-MEL-28 (melanoma) = assay: NCI anticancer screen, SRB assay, 48 h; settings: Homo sapiens
Outline: as §1

SNB-75 (CNS) = assay: NCI anticancer screen, SRB assay, 48 h; settings: Homo sapiens
Outline: as §1

TD-47D (breast) = assay: NCI anticancer screen, SRB assay, 48 h; settings: Homo sapiens
Outline: as §1

UO-31 (renal) = assay: NCI anticancer screen, SRB assay, 48 h; settings: Homo sapiens
Outline: as §1

Breast cancer cell lines = assay: NCI anticancer screen, SRB assay, panel summary; settings: Homo sapiens
Outline: as §1

CNS cancer cell lines = assay: NCI anticancer screen, SRB assay, panel summary; settings: for GI50: Homo sapiens
Outline: as §1

Colon cancer cell lines = assay: NCI anticancer screen, SRB assay, panel summary; settings: for GI50: Homo sapiens
Outline: as §1

[6] = tested on: Leukemia cancer cell lines; assay: NCI anticancer screen, SRB assay, panel summary; settings: Homo sapiens
Outline: as §1

[7] = tested on: Melanoma cancer cell lines; assay: NCI anticancer screen, SRB assay, panel summary; settings: for GI50: Homo sapiens
Outline: as §1

[8] = tested on: Non-small cell lung cancer cell lines; assay: NCI anticancer screen, SRB assay, panel summary; settings: Homo sapiens
Outline: as §1

[9] = tested on: Ovarian cancer cell lines; assay: NCI anticancer screen, SRB assay, panel summary; settings: Homo sapiens
Outline: as §1

[10] = tested on: Prostate cancer cell lines; assay: NCI anticancer screen, SRB assay, panel summary
Outline: as §1

Renal cancer cell lines = assay: NCI anticancer screen, SRB assay, panel summary; settings: Homo sapiens
Outline: as §1

[11] = 48 h exposure, SRB, read-out: GI50
[12] = read-out: pGI50 (-log of molar concentration causing 50% inhibition of net cell growth) (converted)

## COc1ccc(-c2cn(-c3cccc(C(=O)/C=C/c4ccc(O)c(OC)c4)c3)c(=O)[nH]2)cc1 [3b, 1-3-[(E)-3-(4-hydroxy-3-methoxyphenyl)-2-propenoyl]phenyl-4-(4-methoxyphenyl)-2,3-dihydro-1H-2-imidazolone]
A498 (renal); [11]
  GI50: 3.72 µM
A498 (renal); [12]
  GI50: 3.72 µM
HCC-2998 (colon); [11]
  GI50: 2.32 µM
HCC-2998 (colon); [12]
  GI50: 2.34 µM
HCT-116 (colon); [11]
  GI50: 1.93 µM
HCT-116 (colon); [12]
  GI50: 1.95 µM
HCT-15 (colon); [11]
  GI50: 3.15 µM
HCT-15 (colon); [12]
  GI50: 3.16 µM
[1]; [11]
  GI50: 5.15 µM
[1]; [12]
  GI50: 5.13 µM
[2]; [11]
  GI50: 2.96 µM
[2]; [12]
  GI50: 2.95 µM
HS 578T (breast); [11]
  GI50: 4.25 µM
HS 578T (breast); [12]
  GI50: 4.27 µM
[3]; K562, 48 h exposure, SRB, read-out: GI50
  GI50: 2.35 µM
[3]; K562, read-out: pGI50 (-log of molar concentration causing 50% inhibition of net cell growth) (converted)
  GI50: 2.34 µM
MDA-MB-231/ATCC (breast); [11]
  GI50: 5.25 µM
MDA-MB-231/ATCC (breast); [12]
  GI50: 5.25 µM
MDA-MB-435 (melanoma); [11]
  GI50: 3.35 µM
MDA-MB-435 (melanoma); [12]
  GI50: 3.39 µM
[4]; [11]
  GI50: 2.85 µM
[4]; [12]
  GI50: 2.82 µM
[5]; [11]
  GI50: 3.23 µM
[5]; [12]
  GI50: 3.24 µM
OVCAR-4 (ovarian); [11]
  GI50: 6.08 µM
OVCAR-4 (ovarian); [12]
  GI50: 6.03 µM
SK-MEL-28 (melanoma); [11]
  GI50: 2.03 µM
SK-MEL-28 (melanoma); [12]
  GI50: 2.04 µM
SNB-75 (CNS); [11]
  GI50: 4.73 µM
SNB-75 (CNS); [12]
  GI50: 4.68 µM
TD-47D (breast); [11]
  GI50: 3.6 µM
TD-47D (breast); [12]
  GI50: 3.63 µM
UO-31 (renal); [11]
  GI50: 5.19 µM
UO-31 (renal); [12]
  GI50: 5.25 µM
Breast cancer cell lines; Breast panel, log of concentration in mol/L causing 50% inhibition of net cell growth, read-out: mean graph midpoint (MG_MID) of Log10 GI50 (converted)
  GI50: 4.17 µM
Breast cancer cell lines; Breast panel, log of concentration leading to 50% net cell death, read-out: mean graph midpoint (MG_MID) of Log10 LC50 (converted)
  LC50: 100 µM
Breast cancer cell lines; five breast cancer cell lines, exposure at least 48 hrs, read-out: GI50, range over the panel
  GI50: 3.18 to 5.25 µM
CNS cancer cell lines; CNS panel, log of concentration leading to 50% net cell death
  mean graph midpoint (MG_MID) of Log10 LC50: 4.06
CNS cancer cell lines; CNS panel, log of concentration in mol/L causing 50% inhibition of net cell growth, read-out: mean graph midpoint (MG_MID) of Log10 GI50 (converted)
  GI50: 4.68 µM
CNS cancer cell lines; six CNS cancer cell lines, exposure at least 48 hrs, read-out: GI50, range over the panel
  GI50: 2.25 to 13.9 µM
Colon cancer cell lines; Colon panel, log of concentration leading to 50% net cell death
  mean graph midpoint (MG_MID) of Log10 LC50: 4.33
Colon cancer cell lines; Colon panel, log of concentration in mol/L causing 50% inhibition of net cell growth, read-out: mean graph midpoint (MG_MID) of Log10 GI50 (converted)
  GI50: 2.88 µM
Colon cancer cell lines; seven colon cancer cell lines, exposure at least 48 hrs, read-out: GI50, range over the panel
  GI50: 1.77 to 6.61 µM
[6]; Leukemia panel, log of concentration in mol/L causing 50% inhibition of net cell growth, read-out: mean graph midpoint (MG_MID) of Log10 GI50 (converted)
  GI50: 1.78 µM
[6]; Leukemia panel, log of concentration leading to 50% net cell death, read-out: mean graph midpoint (MG_MID) of Log10 LC50 (converted)
  LC50: 38 µM
[6]; two leukemia cancer cell lines (RPMI-8226 and K-562), exposure at least 48 hrs, read-out: GI50, range over the panel
  GI50: 1.35 to 2.35 µM
[7]; Melanoma panel, log of concentration in mol/L causing 50% inhibition of net cell growth, read-out: mean graph midpoint (MG_MID) of Log10 GI50 (converted)
  GI50: 4.07 µM
[7]; nine melanoma cancer cell lines, exposure at least 48 hrs, read-out: GI50, range over the panel
  GI50: 2.03 to 13.3 µM
[7]; Melanoma panel, log of concentration leading to 50% net cell death
  mean graph midpoint (MG_MID) of Log10 LC50: 4.13
[8]; Non-small cell lung panel, log of concentration in mol/L causing 50% inhibition of net cell growth, read-out: mean graph midpoint (MG_MID) of Log10 GI50 (converted)
  GI50: 4.68 µM
[8]; Non-small cell lung panel, log of concentration leading to 50% net cell death, read-out: mean graph midpoint (MG_MID) of Log10 LC50 (converted)
  LC50: ≥ 100 µM
[8]; nine non-small cell lung cancer cell lines, exposure at least 48 hrs, read-out: GI50, range over the panel
  GI50: 2.85 to 13.4 µM
[9]; Ovarian panel, log of concentration in mol/L causing 50% inhibition of net cell growth, read-out: mean graph midpoint (MG_MID) of Log10 GI50 (converted)
  GI50: 3.89 µM
[9]; Ovarian panel, log of concentration leading to 50% net cell death, read-out: mean graph midpoint (MG_MID) of Log10 LC50 (converted)
  LC50: 100 µM
[9]; six ovarian cancer cell lines, exposure at least 48 hrs, read-out: GI50, range over the panel
  GI50: 2.56 to 6.08 µM
[10]; Homo sapiens, log of concentration in mol/L causing 50% inhibition of net cell growth, read-out: mean graph midpoint (MG_MID) of Log10 GI50 (converted)
  GI50: 3.02 µM
[10]; Homo sapiens, log of concentration leading to 50% net cell death, read-out: mean graph midpoint (MG_MID) of Log10 LC50 (converted)
  LC50: ≥ 100 µM
[10]; log of concentration resulting in total inhibition of net cell growth
  mean graph midpoint (MG_MID) of Log10 TGI: 4.80
Renal cancer cell lines; Renal panel, log of concentration in mol/L causing 50% inhibition of net cell growth, read-out: mean graph midpoint (MG_MID) of Log10 GI50 (converted)
  GI50: 4.68 µM
Renal cancer cell lines; Renal panel, log of concentration leading to 50% net cell death, read-out: mean graph midpoint (MG_MID) of Log10 LC50 (converted)
  LC50: 95.5 µM
Renal cancer cell lines; eight renal cancer cell lines, exposure at least 48 hrs, read-out: GI50, range over the panel
  GI50: 3.4 to 6.08 µM
